Some test systems named below: MDA-MB-435; SN12C; NCI-H460; MDA-MB-231; OVCAR-3; T47D; LOX IMVI; MDA-N; KM12; M14; SK-MEL-2; IGROV-1; SW-620; HCT-15; 786-0; CAKI-1; NCI-H23; UACC-62; SF-539; EKVX.
Common to all, as to assay: NCI tumour cell line growth inhibition, 48 h

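Following 48 hours of exposure in 96-well plates, responses at five concentrations were used to interpolate endpoints linearly. At the GI50, growth is halved.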 The source made the active and inactive calls. Cut-off read from the data, not from the text of the source: active = GI50 up to about 1.1 µM and inactive = higher. Bounds are passed on as bounds.

For the molecule `NC1(P(=O)(O)O)CCCCC1`, the GI50 with MDA-MB-435, with SN12C, in the experiment with NCI-H460, in the experiment with MDA-MB-231, with OVCAR-3 and with T47D was > 100 µM (inactive) in each case. Besides, the GI50 in the experiment with LOX IMVI, in the experiment with MDA-N, in the experiment with KM12, in the experiment on M14, with SK-MEL-2 and in the experiment on IGROV-1 was > 100 µM (inactive) in each case. The GI50 in the experiment with SW-620 is > 100 µM (inactive); in the experiment with HCT-15 it was above 100 µM; with 786-0 it was > 100 µM (inactive); in the experiment on CAKI-1, > 100 µM (inactive); in the experiment with NCI-H23, > 100 µM (inactive); in the experiment on UACC-62 it was > 100 µM (inactive). The GI50 in the experiment on SF-539 and with EKVX was > 100 µM (inactive) in each case.
As for `COc1ccc(C2c3cc4c(cc3OC(NNC(N)=O)C2C)OCO4)cc1` (stereo not given), the GI50 with MDA-MB-435 is 2.14 µM (inactive); in the experiment with SN12C, 7.16 µM (inactive); in the experiment with NCI-H460, 4.94 µM (inactive); in the experiment on MDA-MB-231 it was 11.7 µM (inactive); in the experiment with OVCAR-3 it was 3.85 µM (inactive); with T47D, 27.4 µM (inactive). Besides, the GI50 is 4.39 µM (inactive) with LOX IMVI; 1.87 µM (inactive) with MDA-N; 4.78 µM (inactive) in the experiment with KM12; 6.41 µM (inactive) in the experiment on M14; 10.8 µM (inactive) in the experiment on SK-MEL-2; 6.59 µM (inactive) in the experiment on IGROV-1. In addition, the GI50 is 3.56 µM (inactive) with SW-620; 3.94 µM in the experiment on HCT-15; 5.26 µM (inactive) in the experiment with 786-0; 6.71 µM (inactive) in the experiment with CAKI-1; 14.6 µM (inactive) in the experiment with NCI-H23; 5.83 µM (inactive) with UACC-62. Further, the GI50 is 1.16 µM (inactive) with SF-539 and 21.5 µM (inactive) in the experiment with EKVX.
As to `CCOC(=O)C1(Cc2ccccc2)C=CN(C(=O)c2ccccc2)C=C1`, the GI50 with MDA-MB-435 was 29.2 µM (inactive); in the experiment on SN12C it was 29.6 µM (inactive); in the experiment with NCI-H460, 51.1 µM (inactive); in the experiment with MDA-MB-231 it was 37 µM (inactive); with OVCAR-3, 41.3 µM (inactive); with T47D it was 16.1 µM (inactive). The GI50 with LOX IMVI was 34.4 µM (inactive); in the experiment with MDA-N, 24.3 µM (inactive); in the experiment with KM12, 36.9 µM (inactive); in the experiment on M14, 35.5 µM (inactive); with SK-MEL-2, 18.1 µM (inactive); in the experiment with IGROV-1, 61.5 µM (inactive). Moreover, the GI50 was 32.2 µM (inactive) in the experiment with SW-620; 32.1 µM with HCT-15; 43.7 µM (inactive) in the experiment with 786-0; 38.5 µM (inactive) with CAKI-1; 30.1 µM (inactive) with NCI-H23; 20.2 µM (inactive) with UACC-62. Besides, the GI50 in the experiment with SF-539 is 42.9 µM (inactive); in the experiment with EKVX, 32.9 µM (inactive).
Regarding `N=c1oc2ccc([N+](=O)[O-])cc2cc1C(=O)Nc1ccccn1`, the GI50 was 37.6 µM (inactive) in the experiment with MDA-MB-435; 72.6 µM (inactive) with SN12C; 69 µM (inactive) in the experiment with NCI-H460; 21.6 µM (inactive) in the experiment with MDA-MB-231; 20.6 µM (inactive) with OVCAR-3; 26.8 µM (inactive) with T47D. The GI50 with LOX IMVI is 33.5 µM (inactive); in the experiment with MDA-N, 49.2 µM (inactive); in the experiment with KM12, 34.3 µM (inactive); in the experiment with M14, 36.8 µM (inactive); in the experiment on SK-MEL-2, 16.2 µM (inactive); with IGROV-1 it was 31.7 µM (inactive). The GI50 in the experiment on SW-620 is 70.3 µM (inactive); with HCT-15, 44.3 µM; in the experiment with 786-0, 19.2 µM (inactive); in the experiment on CAKI-1, > 100 µM (inactive); in the experiment on NCI-H23, 41.3 µM (inactive); with UACC-62 it was 34.2 µM (inactive). In addition, the GI50 in the experiment with SF-539 was 26.2 µM (inactive); in the experiment on EKVX, 34.6 µM (inactive).
Consider `O=S(=O)(CCCCl)SCCCCl`, for which the GI50 is 25.8 µM (inactive) in the experiment on MDA-MB-435; 25.1 µM (inactive) in the experiment on SN12C; 39.4 µM (inactive) with NCI-H460; 29.9 µM (inactive) in the experiment with MDA-MB-231; 31.1 µM (inactive) in the experiment with OVCAR-3; 26.9 µM (inactive) with T47D. For the same molecule, the GI50 with LOX IMVI is 19.2 µM (inactive); with MDA-N it was 27 µM (inactive); with KM12, 46.3 µM (inactive); with M14, 21.5 µM (inactive); in the experiment on SK-MEL-2 it was 44.8 µM (inactive); in the experiment with IGROV-1, 37.5 µM (inactive). In addition, the GI50 was 19.1 µM (inactive) with SW-620; 23.3 µM with HCT-15; 17.4 µM (inactive) in the experiment with 786-0; > 57.1 µM (inactive) in the experiment on CAKI-1; 45.1 µM (inactive) with NCI-H23; 36.1 µM (inactive) with UACC-62. The figures for the GI50 in the experiment on SF-539 and with EKVX were 19.4 µM (inactive) and > 100 µM (inactive), respectively.
In the case of `COc1ccc(-c2nc(SCC(=O)NNC(=S)Nc3ccccc3)[nH]c2-c2ccc(OC)cc2)cc1`, the GI50 with MDA-MB-435 was 18.2 µM (inactive); in the experiment on SN12C, 21.8 µM (inactive); in the experiment with NCI-H460 it was 14.8 µM (inactive); in the experiment with MDA-MB-231, 27.2 µM (inactive); with OVCAR-3, 14.3 µM (inactive); in the experiment on T47D, 16.6 µM (inactive). Also, the GI50 was 19.6 µM (inactive) with LOX IMVI; 20.6 µM (inactive) with MDA-N; 24.9 µM (inactive) with KM12; 17.7 µM (inactive) in the experiment with M14; 18.4 µM (inactive) with SK-MEL-2; 33.8 µM (inactive) with IGROV-1. Further, the GI50 in the experiment with SW-620 is 26.9 µM (inactive); with HCT-15 it was 22.2 µM; in the experiment with 786-0, 23.7 µM (inactive); in the experiment with CAKI-1, 34.3 µM (inactive); with NCI-H23, 21.4 µM (inactive); with UACC-62, 16.6 µM (inactive). Further, the GI50 with SF-539 is 15.7 µM (inactive); with EKVX, 28.8 µM (inactive).
Take `Cc1cc2c(cc1Cl)SC(NNC1=NCCN1)=NS2(=O)=O`: the GI50 in the experiment with MDA-MB-435, in the experiment with SN12C, in the experiment on NCI-H460, in the experiment with MDA-MB-231, in the experiment with OVCAR-3 and with T47D was > 10 µM (inactive) throughout. Moreover, the GI50 in the experiment on LOX IMVI, with MDA-N, in the experiment with KM12, in the experiment with M14, with SK-MEL-2 and in the experiment on IGROV-1 was > 10 µM (inactive) in each case. The GI50 in the experiment on SW-620 was > 10 µM (inactive); in the experiment with HCT-15 it was above 10 µM; in the experiment with 786-0, > 10 µM (inactive); in the experiment with CAKI-1, > 10 µM (inactive); in the experiment with NCI-H23, > 10 µM (inactive); with UACC-62 it was > 10 µM (inactive). Besides, the GI50 with SF-539 and with EKVX was > 10 µM (inactive) each time.
Consider `C=C1CC2C[C@H](OS(=O)(=O)c3ccc(C)cc3)C(C1)N2C` (stereo not given in full), for which the GI50 in the experiment with MDA-MB-435, with SN12C, with NCI-H460, with MDA-MB-231, in the experiment on OVCAR-3 and in the experiment on T47D was > 100 µM (inactive) throughout. The GI50 with LOX IMVI, with MDA-N, in the experiment with KM12, with M14, with SK-MEL-2 and in the experiment with IGROV-1 was > 100 µM (inactive) each time. Also, the GI50 with SW-620 was > 100 µM (inactive); with HCT-15, above 100 µM; in the experiment with 786-0, > 100 µM (inactive); with CAKI-1 it was > 100 µM (inactive); in the experiment with NCI-H23 it was > 100 µM (inactive); in the experiment on UACC-62, > 100 µM (inactive). The GI50 with SF-539 and in the experiment on EKVX was > 100 µM (inactive) in each case.
For the molecule `COc1c(C(C)(C)C)cc(CC2C(=O)C=CC2=O)cc1C(C)(C)C`, the GI50 in the experiment with MDA-MB-435 is 15.3 µM (inactive); with SN12C it was 26.5 µM (inactive); in the experiment on NCI-H460, 20.2 µM (inactive); in the experiment on MDA-MB-231 it was 18.2 µM (inactive); in the experiment on OVCAR-3, 13.9 µM (inactive); in the experiment on T47D, 4.18 µM (inactive). Moreover, the GI50 in the experiment on LOX IMVI was 11.1 µM (inactive); with MDA-N, 15.2 µM (inactive); in the experiment with KM12 it was 17.4 µM (inactive); in the experiment with M14, 17.9 µM (inactive); with SK-MEL-2 it was 19 µM (inactive); in the experiment on IGROV-1 it was 14.2 µM (inactive). Further, the GI50 in the experiment with SW-620 was 6.92 µM (inactive); in the experiment with HCT-15 it was 14.1 µM; with 786-0, 2.86 µM (inactive); with CAKI-1, 15.3 µM (inactive); with NCI-H23, 22.4 µM (inactive); in the experiment on UACC-62, 17.9 µM (inactive). Further, the GI50 in the experiment with SF-539 was 11.1 µM (inactive); with EKVX, 17.7 µM (inactive).
As to `CC(=O)OC1=NN=C2COC(c3ccccc3OC(C)=O)=NN2C1`, the GI50 with MDA-MB-435, in the experiment on SN12C, with NCI-H460, with MDA-MB-231, in the experiment on OVCAR-3 and in the experiment with T47D was > 50 µM (inactive) throughout. In addition, the GI50 with LOX IMVI was 24.1 µM (inactive); in the experiment on MDA-N, > 50 µM (inactive); with KM12 it was 31.5 µM (inactive); in the experiment with M14, 16.7 µM (inactive); in the experiment on SK-MEL-2 it was 36.2 µM (inactive); in the experiment on IGROV-1, > 50 µM (inactive). Also, the GI50 with SW-620 was > 50 µM (inactive); in the experiment with HCT-15, above 50 µM; in the experiment on 786-0 it was 24.4 µM (inactive); in the experiment with CAKI-1 it was > 50 µM (inactive); in the experiment with NCI-H23, > 50 µM (inactive); with UACC-62 it was 28.1 µM (inactive). In addition, the GI50 with SF-539 and in the experiment on EKVX was > 50 µM (inactive) each time.

The values above are taken from ChEMBL document CHEMBL1201862, “PubChem BioAssay data set” (2004).
